Data reported in article PMC9479156 (Frontiers in Pharmacology, 2022).
Where two headings read alike, the source gives them in different places.

Assays:
[1] = tested on: late stage IV-V P. falciparum NF54 gametocytes; experiment: Luciferase reporter gametocytocidal assay, late stage gametocytes; assay type: cell-based, Plasmodium falciparum; conditions: for IC50: Plasmodium falciparum; for Fold change preference ratio LG to EG: late vs immature stage gametocytes
Description: (§1) In vitro cultivation of asexual and gametocyte P. falciparum parasites: P. falciparum asexual blood stage parasites were cultivated in human erythrocytes in RPMI-1640 media supplemented with AlbuMax II under sterile conditions and in a hypoxic environment (90% N2, 5% CO2, and 5% O2) at 37°C as described previously ([Coertzen et al., 2018]; [Wong et al., 2019]). Gametocytes were produced from asexual blood stage parasites in a stage-specific manner through induction of cellular stress as described previously ([Reader et al., 2015]; [Coertzen et al., 2018]; [Wong et al., 2019]; [Reader et al., 2022]).
Untreated and 5 μM MB-treated immature and late-stage gametocytes were included as positive and negative controls. MB and artemisone were included as internal reference standards. In all cases, an interference assay to eliminate false positives from possible compound interference with the luciferase readout was run in parallel. Unless otherwise indicated, data are from technical triplicates, performed for three biological replicates. Complete dose-response curves are given in the (Supplementary Figures S2A,B).
(§2) Stage-specific activities of celastrol against immature (stage II-III) and late stage (stage IV-V) gametocytes were determined with the luc reporter line as described previously ([Coertzen et al., 2018]; [Wong et al., 2019]). Also included in Table 2 for direct comparison of activities with celastrol are gametocytocidal data for MB, artemisone and the artemisinin derivatives recorded previously ([Coertzen et al., 2018]; [Wong et al., 2019]).

[2] = tested on: chloroquine sensitive Pf NF54 strain; conditions: tritiated hypoxanthine assay; ref Figueiredo et al., 1998; Li et al., 2019; cited from earlier work
[3] = tested on: immature stage II-III P. falciparum NF54 gametocytes; experiment: Luciferase reporter gametocytocidal assay, immature gametocytes; assay type: cell-based, Plasmodium falciparum; conditions: this study
Description: as §1
Untreated and 5 μM MB-treated immature and late-stage gametocytes were included as positive and negative controls. MB and artemisone were included as internal reference standards. In all cases, an interference assay to eliminate false positives from possible compound interference with the luciferase readout was run in parallel. […]
as §2

[4] = tested on: asexual blood stage P. falciparum NF54 (drug sensitive); parameters: method as in Coertzen et al., 2018; Wong et al., 2019; conditions: SYBR Green I, mean ± SEM, ref Coertzen et al., 2018, Wong et al., 2019; cited from earlier work
[5] = tested on: immature stage II-III P. falciparum NF54 gametocytes; parameters: method as in Coertzen et al., 2018, Wong et al., 2019; conditions: ref Coertzen et al., 2018, Wong et al., 2019, cited from earlier work
[6] = tested on: late stage IV-V P. falciparum NF54 gametocytes; parameters: method as in Coertzen et al., 2018, Wong et al., 2019; conditions: ref Coertzen et al., 2018, Wong et al., 2019, cited from earlier work
[7] = immature vs late stage gametocytes

Compound | IC50 ([1]; NF54, abstract, read-out: IC50 late stage Pf NF54 gametocytes) [nM] | IC50 ([1]; NF54 gametocytes, luciferase, 72 h, mean ± SEM, this study, read-out: Late stage IV-V (luc 72 h) IC50) [nM] | Fold change preference ratio LG to EG ([1]; this study) | Fold change preference ratio LG to EG ([1]; this study, listed as celastrol) | IC50 [2] [nM] | IC50 ([3]; Plasmodium falciparum, NF54 gametocytes, luciferase, 48 h, mean ± SEM, read-out: Immature stage II-III (luc 48 h) IC50) [nM] | Fold change preference ratio EG to LG [3, 7] | IC50 [4] [nM] | IC50 ([5]; NF54 gametocytes, luciferase, 48 h, mean ± SEM, read-out: Immature stage II-III (luc 48 h) IC50) [nM] | Fold change preference ratio EG to LG [5, 7] | IC50 ([6]; NF54 gametocytes, luciferase, 72 h, mean ± SEM, read-out: Late stage IV-V (luc 72 h) IC50) [nM] | Fold change preference ratio LG to EG ([6]; late vs immature stage gametocytes)
CC1=C(O)C(=O)C=C2C1=CC=C1[C@@]2(C)CC[C@@]2(C)[C@@H]3C[C@](C)(C(=O)O)CC[C@]3(C)CC[C@]12C [Celastrol, celastrol] | 280 | 282 ± 96.2 | 4.1 | approximately 4 | 564 | 1160 | 0.2 | – | – | – | – | –
C[C@H]1[C@H](N2CCS(=O)(=O)CC2)O[C@@H]2O[C@@]3(C)CC[C@H]4[C@H](C)CC[C@@H]1[C@@]24OO3 [Artemisone, artemisone] | – | – | – | – | – | – | – | 1.2 | 1.94 ± 0.11 | 21.9 | 42.4 ± 3.3 | 0.05
